# Reference: ChEMBL document CHEMBL1201862, “PubChem BioAssay data set” (2004)
# Active and inactive are the calls of the source.
# How the values were obtained:
# [1] = target: Eukaryotic translation initiation factor 4E (Mus musculus, UniProt P63073); assay: blockers of eIF4G binding by eIF4E – biochemical, TR-FRET, dose response (AID 855); type: functional;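 also: potency for disrupting eIF4E binding to eIF4GI seen as loss of FRET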
# [2] = target: T1, Carboxy-terminal domain RNA polymerase II polypeptide A small phosphatase 1 (Homo sapiens, UniProt Q9GZU7); assay: CTDSP1 inhibitors, concentration-response, biochemical, absorbance readout, ultra-high-throughput screen actives (AID 540297); type: functional
# T1 sequence (Q9GZU7 whole entry): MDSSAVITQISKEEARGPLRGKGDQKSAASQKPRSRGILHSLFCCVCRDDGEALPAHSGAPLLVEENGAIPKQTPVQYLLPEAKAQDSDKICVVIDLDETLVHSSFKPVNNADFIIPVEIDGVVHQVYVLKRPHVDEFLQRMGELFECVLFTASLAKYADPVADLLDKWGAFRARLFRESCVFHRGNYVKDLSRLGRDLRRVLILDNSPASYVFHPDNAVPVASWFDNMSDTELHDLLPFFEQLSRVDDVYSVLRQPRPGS
# [3] = target: T2, Long-chain-fatty-acid--AMP ligase FadD28 (Mycobacterium tuberculosis, UniProt P9WQ59); assay: Fluorescence polarization aasay to screen for inhibitors that compete for the binding of FadD28 to a bisubstrate Measured in Biochemical System Using Plate Reader - 2147-01_Inhibitor_Dose_CherryPick_Activity.; type: functional, Mycobacterium tuberculosis H37Rv
# T2 sequence (P9WQ59 whole entry): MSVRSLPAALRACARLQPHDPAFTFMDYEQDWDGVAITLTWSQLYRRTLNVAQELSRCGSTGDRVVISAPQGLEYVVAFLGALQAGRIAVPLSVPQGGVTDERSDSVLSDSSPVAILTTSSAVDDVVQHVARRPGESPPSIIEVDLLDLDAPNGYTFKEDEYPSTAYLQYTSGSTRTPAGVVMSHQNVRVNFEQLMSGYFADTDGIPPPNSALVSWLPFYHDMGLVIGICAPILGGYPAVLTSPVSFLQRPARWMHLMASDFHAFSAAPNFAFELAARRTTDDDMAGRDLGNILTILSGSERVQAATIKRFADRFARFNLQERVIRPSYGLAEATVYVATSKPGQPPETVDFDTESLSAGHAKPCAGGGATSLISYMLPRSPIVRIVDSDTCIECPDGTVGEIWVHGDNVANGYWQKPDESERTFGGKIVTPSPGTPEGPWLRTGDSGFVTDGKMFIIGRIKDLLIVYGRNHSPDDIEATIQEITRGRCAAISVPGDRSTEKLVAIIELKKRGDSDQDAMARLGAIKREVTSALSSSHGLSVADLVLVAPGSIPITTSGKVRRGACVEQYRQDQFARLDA
# [4] = target: T3, Histone-lysine N-methyltransferase NSD2 (Homo sapiens, UniProt O96028); type: biochemical
# T3 sequence (O96028 whole entry): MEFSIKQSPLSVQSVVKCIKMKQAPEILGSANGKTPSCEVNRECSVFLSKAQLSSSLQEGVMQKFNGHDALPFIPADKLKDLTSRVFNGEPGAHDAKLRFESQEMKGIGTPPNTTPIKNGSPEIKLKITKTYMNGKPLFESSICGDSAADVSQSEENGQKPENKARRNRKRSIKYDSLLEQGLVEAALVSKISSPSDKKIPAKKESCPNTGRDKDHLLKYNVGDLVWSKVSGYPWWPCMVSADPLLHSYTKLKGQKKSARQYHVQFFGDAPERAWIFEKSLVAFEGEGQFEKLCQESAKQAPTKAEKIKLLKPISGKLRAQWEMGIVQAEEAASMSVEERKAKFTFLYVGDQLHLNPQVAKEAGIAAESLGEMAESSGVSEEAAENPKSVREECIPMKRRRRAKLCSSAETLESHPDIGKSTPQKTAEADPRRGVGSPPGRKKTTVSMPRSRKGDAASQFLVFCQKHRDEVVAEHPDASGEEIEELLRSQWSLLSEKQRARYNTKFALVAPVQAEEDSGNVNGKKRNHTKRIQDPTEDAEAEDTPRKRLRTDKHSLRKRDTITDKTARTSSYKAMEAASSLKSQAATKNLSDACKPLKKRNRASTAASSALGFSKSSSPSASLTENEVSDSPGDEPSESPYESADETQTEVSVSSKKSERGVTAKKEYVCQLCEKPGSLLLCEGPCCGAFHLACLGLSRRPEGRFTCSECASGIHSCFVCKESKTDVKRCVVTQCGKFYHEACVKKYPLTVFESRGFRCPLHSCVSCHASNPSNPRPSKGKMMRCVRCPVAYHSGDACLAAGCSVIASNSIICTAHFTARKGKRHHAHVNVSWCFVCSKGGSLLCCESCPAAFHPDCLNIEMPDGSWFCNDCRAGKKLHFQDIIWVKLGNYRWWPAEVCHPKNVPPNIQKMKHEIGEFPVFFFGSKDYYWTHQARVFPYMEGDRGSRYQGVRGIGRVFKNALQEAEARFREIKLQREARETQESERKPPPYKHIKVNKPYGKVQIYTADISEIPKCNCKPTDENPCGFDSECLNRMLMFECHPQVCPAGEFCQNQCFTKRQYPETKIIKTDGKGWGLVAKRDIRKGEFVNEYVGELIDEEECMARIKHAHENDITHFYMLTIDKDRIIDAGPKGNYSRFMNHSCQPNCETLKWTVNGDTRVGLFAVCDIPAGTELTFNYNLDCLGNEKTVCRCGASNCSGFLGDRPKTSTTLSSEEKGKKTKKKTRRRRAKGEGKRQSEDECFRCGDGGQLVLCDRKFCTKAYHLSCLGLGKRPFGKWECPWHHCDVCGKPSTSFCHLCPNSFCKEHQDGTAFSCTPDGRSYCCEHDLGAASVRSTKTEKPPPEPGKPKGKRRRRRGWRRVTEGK
# Kallikrein-7 = Kallikrein-7 (Homo sapiens, UniProt P49862); assay: Fluorescence Intensity-based biochemical primary high throughput dose response assay to identify activators of kallikrein-7 (K7) zymogen.
# Sequence of Kallikrein-7 (P49862 whole entry): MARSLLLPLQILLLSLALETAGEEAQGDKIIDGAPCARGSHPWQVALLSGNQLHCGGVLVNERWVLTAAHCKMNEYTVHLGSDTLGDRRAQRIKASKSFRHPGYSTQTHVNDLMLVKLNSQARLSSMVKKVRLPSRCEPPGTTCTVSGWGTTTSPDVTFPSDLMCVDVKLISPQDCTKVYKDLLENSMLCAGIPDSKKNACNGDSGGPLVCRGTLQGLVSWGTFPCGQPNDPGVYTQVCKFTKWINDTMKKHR
# Vero = assay: cells; type: functional; conditions: Chlorocebus sabaeus
# [5] = blockers of bursicon-stimulated LGR2 cAMP reporter – cell-based, HEK293, CRE-luciferase reporter, cherry pick, set 2, dose response (AID 743343); type: functional;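 also: transfected cells were stimulated with diluted bursicon conditioned medium after compound addition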
# [6] = blockade of melanocortin 4 receptor signaling – cell-based, plate reader, cherry pick, counter-screen for LGR2 antagonist project, dose response (AID 743444); type: functional;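 also: transfected HEK 293 cells stimulated with alpha-MSH peptide; potency of inhibitors of the alpha-MSH evoked signal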
# [7] = viability loss in HEK293 cells – cell-based, plate reader, cherry-picked samples, cytotoxicity control, dose response (AID 743446); type: functional
# [8] = potency of ADAM10 substrate cleavage blockers – biochemical, QFRET, dose response (AID 743254);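 also: ADAM10 enzyme with the DM2 quenched FRET peptide as substrate; EDANS fluorescence gain as the protease cuts the substrate; inhibitor potency against ADAM10 proteolytic activity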
# [9] = target: Disintegrin and metalloproteinase domain-containing protein 17 (Homo sapiens, UniProt P78536); assay: inhibition of ADAM17 substrate cleavage – biochemical, quenched FRET substrate, counter-screen for ADAM10 exosite inhibitor project, dose response (AID 743253)
# Sequence of Disintegrin and metalloproteinase domain-containing protein 17 (P78536 whole entry, the tested form may be a part): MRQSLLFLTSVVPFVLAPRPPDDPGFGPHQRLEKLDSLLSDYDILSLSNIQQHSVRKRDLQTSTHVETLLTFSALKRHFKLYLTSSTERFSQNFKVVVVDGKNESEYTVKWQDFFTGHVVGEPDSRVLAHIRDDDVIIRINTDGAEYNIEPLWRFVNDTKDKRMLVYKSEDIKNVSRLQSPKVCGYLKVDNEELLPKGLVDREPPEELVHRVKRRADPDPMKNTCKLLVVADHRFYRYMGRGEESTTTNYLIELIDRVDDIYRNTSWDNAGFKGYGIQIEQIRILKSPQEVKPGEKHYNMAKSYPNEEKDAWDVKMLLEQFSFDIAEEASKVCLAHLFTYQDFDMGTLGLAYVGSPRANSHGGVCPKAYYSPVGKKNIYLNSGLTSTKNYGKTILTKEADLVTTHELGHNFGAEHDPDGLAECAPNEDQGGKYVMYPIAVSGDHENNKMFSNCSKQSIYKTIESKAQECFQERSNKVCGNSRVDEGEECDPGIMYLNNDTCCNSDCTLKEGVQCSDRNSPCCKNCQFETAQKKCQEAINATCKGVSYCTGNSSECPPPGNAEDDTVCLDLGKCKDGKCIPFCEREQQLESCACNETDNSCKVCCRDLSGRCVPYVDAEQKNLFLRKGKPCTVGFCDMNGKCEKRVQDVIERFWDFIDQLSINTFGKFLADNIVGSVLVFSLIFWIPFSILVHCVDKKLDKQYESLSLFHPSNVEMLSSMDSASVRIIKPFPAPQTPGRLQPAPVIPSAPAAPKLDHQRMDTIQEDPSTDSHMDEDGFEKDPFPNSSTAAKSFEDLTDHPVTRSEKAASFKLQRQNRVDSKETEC
# [10] = target: Induced myeloid leukemia cell differentiation protein Mcl-1 (Homo sapiens, UniProt Q07820); type: functional
# Sequence of Induced myeloid leukemia cell differentiation protein Mcl-1 (Q07820 whole entry): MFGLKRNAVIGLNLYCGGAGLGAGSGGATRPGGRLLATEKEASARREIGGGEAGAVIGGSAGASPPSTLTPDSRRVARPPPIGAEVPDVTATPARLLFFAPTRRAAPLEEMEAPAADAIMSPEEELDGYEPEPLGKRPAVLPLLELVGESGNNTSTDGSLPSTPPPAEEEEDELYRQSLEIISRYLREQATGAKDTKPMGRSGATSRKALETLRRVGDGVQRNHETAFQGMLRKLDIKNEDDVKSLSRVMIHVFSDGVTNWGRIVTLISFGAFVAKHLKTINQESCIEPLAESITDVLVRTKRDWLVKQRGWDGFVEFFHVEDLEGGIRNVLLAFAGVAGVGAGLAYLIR
# [11] = A549 cell cytotoxicity, dose response, cytotoxicity control, plate reader, cherry-pick, antagonist series (AID 743412); type: functional, cell-based
# [12] = toxicity toward HepG2 liver cells – cell-based, plate reader, cherry-pick, antagonist series, cytotoxicity control, dose response (AID 743416); type: functional
# [13] = target: NAD-dependent protein deacylase sirtuin-5, mitochondrial (Homo sapiens, UniProt Q9NXA8); assay: sirtuin-5 deacylation blockers, concentration series – biochemical, fluorescence imaging, cherry-pick, set 5, dose response (AID 720591);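 also: desuccinylation of succinyl peptide AMC substrate read as fluorescence after trypsin release; potency of inhibitors that lower fluorescence and may act on trypsin instead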
# Sequence of NAD-dependent protein deacylase sirtuin-5, mitochondrial (Q9NXA8 whole entry, the tested form may be a part): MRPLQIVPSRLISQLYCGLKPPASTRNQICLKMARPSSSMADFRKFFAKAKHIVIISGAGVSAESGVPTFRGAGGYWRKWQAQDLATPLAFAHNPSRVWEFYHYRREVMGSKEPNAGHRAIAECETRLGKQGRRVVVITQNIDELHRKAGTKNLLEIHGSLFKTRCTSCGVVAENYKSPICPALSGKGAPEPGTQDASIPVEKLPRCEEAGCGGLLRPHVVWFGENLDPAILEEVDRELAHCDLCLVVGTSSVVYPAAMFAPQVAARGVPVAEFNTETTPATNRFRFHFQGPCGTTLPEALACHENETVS
# [14] = blockers of HIV-1 envelope-mediated cell-cell fusion – cherry-pick, dose response (AID 652057); type: functional, cell-based
# [15] = viability loss in CEM21 cells – cell-based, CellTiter-Glo luminescence, cherry-picked, cytotoxicity control for viral fusion inhibitor project, dose response (AID 652042); type: functional;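 also: potency for signal decrease meaning cytotoxicity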
# [16] = blockers of HIV-1 ZM109 envelope-driven cell-cell fusion – HeLa effector, CEM target cells, luciferase, cherry-pick, dose response (AID 652058); type: functional, cell-based;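 also: luciferase signal from HIV-1 Env mediated cell-cell fusion of effector and target cells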
# [17] = off-target signal loss in HeLa-CEM21 co-culture – HeLa F-luc CTL cells, cherry-picked, counter-screen for HIV-1 Env fusion inhibitor project, dose response (AID 652040); type: functional, cell-based;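 also: potency for signal decrease marking cytotoxic or nonspecific inhibition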
# Sequence of Eukaryotic translation initiation factor 4E (P63073 whole entry, the tested form may be a part): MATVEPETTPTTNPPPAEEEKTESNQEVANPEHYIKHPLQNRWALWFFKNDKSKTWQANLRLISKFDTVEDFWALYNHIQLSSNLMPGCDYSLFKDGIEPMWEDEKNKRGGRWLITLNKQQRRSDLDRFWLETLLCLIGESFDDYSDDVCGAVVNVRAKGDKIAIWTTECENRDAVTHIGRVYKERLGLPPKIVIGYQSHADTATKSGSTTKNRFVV
structure (smiles),measurement,setting,value
Cc1ccc(NC(=O)CN2C(=O)N/C(=C/c3cc(C)n(-c4cccc(C(=O)O)c4)c3C)C2=O)cc1,IC50,[1],50 µM (inactive)
same,IC50,[2],7.94 µM (active)
same,AC50,[3],27.5 µM (active)
same,AC50,[4],> 20 µM (inactive)
CC(=O)c1cc2c(cc1NS(=O)(=O)c1ccccc1Br)OCO2,EC50,Kallikrein-7,66.2 µM (inactive)
Cc1ccc(C(=O)OCC(=O)Nc2ccc3c(c2)OCO3)cc1S(=O)(=O)N1CCOCC1,AC50,[3],> 100 µM (inactive)
CCCCN(CCCNC(=O)c1ccc2c(c1)NC(=O)CN2C)c1ccccc1,CC50,Vero,> 25 µM (active)
same,AC50,[5],21.6 µM (active)
same,AC50,[6],23.9 µM (active)
same,AC50,[7],16.7 µM (active)
COc1ccc(OC(F)(F)F)cc1CC1(C)C(=O)Nc2ccc(-c3ccsc3)cc21 (centres undefined),IC50,[8],8.48 µM (active)
same,IC50,[9],> 69.5 µM (inactive)
COc1cc(/C=N/Nc2nc(C)nc3c2cnn3-c2ccccc2)ccc1O,IC50,[10],9.67 µM (active)
same,AC50,[11],8.71 µM (active)
same,AC50,[12],27.1 µM (active)
same,AC50,[5],23.1 µM (active)
same,AC50,[7],> 52 µM (inactive)
CCCCC[C@H](C)N1C[C@@H](COCc2ccccc2)Oc2cc(N3CCC[C@H]3CO)ccc2S1(=O)=O,AC50,[13],> 30 µM (inactive)
CCCCCCCCN1C(=O)[C@H](CC(=O)NCC2CCCCC2)C[C@@]2(C(=O)OCC)CCC=C12,AC50,[13],27.7 µM (active)
C[C@H]1CN([C@@H](C)CO)S(=O)(=O)c2ccc(-c3ccc(F)cc3)cc2O[C@H]1CN(C)Cc1cccc(F)c1,AC50,[14],12.4 µM (active)
same,AC50,[15],19.9 µM (active)
CCN(CC)C(=O)c1ncn2c1C(=O)NC[C@@H]2C,AC50,[14],8.99 µM (active)
same,AC50,[16],9.08 µM (active)
same,AC50,[17],24.7 µM (active)
